# Experimental data: patent US20060045905A1, “Composition for repressing transformation growth factor beta” (Taiyokagaku Co., Ltd., priority 2004, published 2006)
# System: mice
# Assay type: in vivo
# Conditions: oral administration of theanine by 5 g/kg
# Description: Theanine used in the invention has a high security. […] Furthermore, theanine is known as a principal component of deliciousness of tea and used as a food additive for use as gustatory. An amount of theanine to be added is not limited under the Food Sanitation Law. Moreover, differing from conventional medical substances, theanine has no adverse side effect. Consequently, the composition of the invention can be used as a safe and effective composition for repressing TGF-β.
smiles,measurement,value
"CCNC(=O)CC[C@H](N)C(=O)O [theanine, L-theanine]",mortality in acute toxicity test,no mice died
